Results on 74 molecules are retold here after PubChem BioAssay AID1552 (Sanford-Burnham Center for Chemical Genomics, 2009).

SMILES strings stand for the structures. Active and inactive are the calls of the source. The rule behind the calls is not given here.

The target in the assay is Ubiquitin-conjugating enzyme E2 N (Homo sapiens) (UniProt P61088). Kind of assay: NMR detection of UBE2N ligand binding – biophysical, purified protein (AID 1552). As to conditions: NMR binding to purified UBE2N.
Sequence of Ubiquitin-conjugating enzyme E2 N (Homo sapiens) (P61088 whole entry, looked up): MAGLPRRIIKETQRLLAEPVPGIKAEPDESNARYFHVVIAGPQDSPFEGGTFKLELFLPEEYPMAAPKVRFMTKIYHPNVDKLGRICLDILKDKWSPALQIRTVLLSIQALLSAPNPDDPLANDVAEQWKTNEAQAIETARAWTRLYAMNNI
For orientation: Kd means the concentration at which binding is half-saturated. With `O=C(O)C1=C[C@@H](O)[C@@H](O)[C@H](O)C1`, the Kd was > 4 mM (inactive).

As for `Cn1ccc(C(=O)NC(=S)NN2CCOCC2)n1`, the Kd was > 4 mM (inactive).

On to `Cc1noc(C)c1C(=O)N1CCC2(CC1)OCCO2`, for which the Kd was > 4 mM (inactive).

For `Cc1cc(C)n(-c2nncn2N)n1`, the Kd was > 4 mM (inactive).

Take `CC1(C)CC[C@]2(C)CC[C@]3(C)C(=CCC4[C@@]5(C)CC[C@H](O)C(C)(C)C5CC[C@]43C)C2C1` (some centres undefined): the Kd was > 4 mM (inactive).

With `CCC(=O)NC(=S)Nc1ccc(C(N)=O)cc1`, the Kd was > 4 mM (inactive).

As to `CC(=O)c1c(C)n([O-])c2ccccc2[n+]1=O`, the Kd was > 4 mM (inactive).

`Cc1nn(C)c(N2CCOCC2)c1N`: the Kd is > 4 mM (inactive).

`O=C(c1ccc2c(c1)OCO2)N1CCC2(CC1)OCCO2`: the Kd was > 4 mM (inactive).

For the molecule `CC(=O)NC1=C(N(C)C)C(=O)c2ccccc2C1=O`, the Kd was > 4 mM (inactive).

Consider `Oc1ccc2nonc2c1`, for which the Kd was > 4 mM (inactive).

For `CC(=O)N1CCC(NC2CCCCCC2)CC1`, the Kd was > 4 mM (inactive).

Consider `Cc1cc(C)n(-c2nc(C)nc(N)n2)n1`, for which the Kd was > 4 mM (inactive).

For `Nc1nc(-c2ccccc2)ns1`, the Kd is > 4 mM (inactive).

On to `O=C(NCc1ccco1)c1ccc(=O)[nH]c1`, for which the Kd was > 4 mM (inactive).

As to `COC(=O)c1cc2ccccc2cn1`, the Kd is > 4 mM (inactive).

`COc1ccc(-c2noc(-c3ccco3)n2)cc1OC`: the Kd is > 4 mM (inactive).

For the molecule `COC(=O)C[C@@H]1C2(C)C(=O)[C@@H](CC3C2CC[C@]2(C)C3CC(=O)O[C@H]2c2ccoc2)[C@H](OC(C)=O)C1(C)C` (some centres undefined), the Kd was > 4 mM (inactive).

As for `COc1cccc(C(=O)Nc2c(C)n[nH]c2C)c1`, the Kd was > 4 mM (inactive).

Regarding `Cc1noc(C)c1C(=O)N1CCN(c2ncccn2)CC1`, the Kd was > 4 mM (inactive).

On to `CSc1nc2nc(C)cc(=O)n2[nH]1`, for which the Kd was > 4 mM (inactive).

Consider `COC1CC(O[C@H]2CC[C@]3(C=O)C4CC[C@]5(C)C(C6=CC(=O)OC6)CC[C@]5(O)C4CC[C@]3(O)C2)OC(C)C1O` (some centres undefined), for which the Kd was > 4 mM (inactive).

With `COc1ccc(C)cc1S(N)(=O)=O`, the Kd was > 4 mM (inactive).

On to `C=CCc1ccc2c(c1)OCO2`, for which the Kd is > 4 mM (inactive).

For `O=C(Nn1cnnc1)c1csc2ccccc12`, the Kd was > 4 mM (inactive).

As to `COC(=O)[C@]1(C)CCC[C@]2(C)c3ccc(C(C)C)cc3C(=O)CC12` (some centres undefined), the Kd is > 4 mM (inactive).

As for `O=C(Nn1cnnc1)c1cc2c(s1)CCCC2`, the Kd was > 4 mM (inactive).

In the case of `COc1cc(-c2coc3cc(OC)c(OC)c(OC)c3c2=O)cc(OC)c1OC`, the Kd is > 4 mM (inactive).

On to `C/C(=N\NC(N)=S)C(=O)O`, for which the Kd is > 4 mM (inactive).

As to `O=C(C1CCC(C(=O)N2CCCC2)CC1)N1CCCC1` (centres undefined), the Kd is > 4 mM (inactive).

With `CCOC(=O)c1c(C)nc2cc(C)ccn12`, the Kd was > 4 mM (inactive).

As for `Cn1nnc2cc(C(=O)NC3CCCCC3)ccc21`, the Kd is > 4 mM (inactive).

As for `Cc1c(CO)cnn1-c1ccc(F)cc1`, the Kd was > 4 mM (inactive).

Regarding `CC(C)c1nnc(N)s1`, the Kd was > 4 mM (inactive).

`COC(=O)c1ccc(C(=S)N2CCOCC2)cc1`: the Kd was > 4 mM (inactive).

With `c1ccc(CCc2nc(-c3ccccn3)no2)cc1`, the Kd was > 4 mM (inactive).

`NCCNC(=S)Nc1ccccc1`: the Kd was > 4 mM (inactive).

Take `CC(=O)c1c(O)cc(C)n(Cc2ccccc2)c1=O`: the Kd was > 4 mM (inactive).

As for `Cc1cc(=O)c2ccccc2n1CC(N)=O`, the Kd was > 4 mM (inactive).

Take `Cc1cc(C(=O)N2CCN(c3ncccn3)CC2)c(C)o1`: the Kd is > 4 mM (inactive).

`COc1ccc2c(c1)OC[C@@H](Cc1ccc(OC)c(OC)c1)[C@H]2O`: the Kd is > 4 mM (inactive).

For `CC(O)C(=O)N/N=C/c1ccccc1` (centres undefined), the Kd was > 4 mM (inactive).

For the molecule `O=C(O)CCn1c(=O)oc2ccccc21`, the Kd is > 4 mM (inactive).

Take `CCOC(=O)c1[nH]c(C)cc1C`: the Kd was > 4 mM (inactive).

On to `O=C(O)c1ccc(Oc2ccccc2)nc1`, for which the Kd is > 4 mM (inactive).

`CC(C)(C)c1cc(CN)c(C(=O)O)o1`: the Kd is > 4 mM (inactive).

In the case of `COc1cc([C@@H]2c3cc4c(cc3[C@H](OC(C)=O)[C@H]3COC(=O)[C@@H]23)OCO4)cc(OC)c1OC`, the Kd is > 4 mM (inactive).

In the case of `O=C1CN(C(=O)c2ccccc2F)c2ccccc2N1`, the Kd was > 4 mM (inactive).

Take `O=c1[nH]cnc2c1nnn2Cc1ccccc1`: the Kd is > 4 mM (inactive).

Consider `Cc1cc(N2C(=O)CCC2=O)n(-c2ccccc2)n1`, for which the Kd is > 4 mM (inactive).

`Cc1ccc(/C=N/NC(N)=O)o1`: the Kd is > 4 mM (inactive).

`CCOC(=O)c1ccc(Oc2ccc(C)nn2)cc1`: the Kd is > 4 mM (inactive).

For the molecule `Cc1ccc(NC(=O)CC2NCCNC2=O)c(C)c1` (centres undefined), the Kd is > 4 mM (inactive).

For the molecule `COC(=O)c1ccc(/C=C2/NC(=S)NC2=O)cc1`, the Kd is > 4 mM (inactive).

`N=Cc1c(O)n(-c2cccc(Cl)c2)c(=O)[nH]c1=O`: the Kd is > 4 mM (inactive).

Take `COc1ccccc1NC(=O)C1CCC(=O)N1` (centres undefined): the Kd was > 4 mM (inactive).

Turning to `O=C(NN1CCOCC1)c1ccccc1F`, the Kd is > 4 mM (inactive).

As to `Cc1onc(-c2ccc(F)cc2)c1C(=O)O`, the Kd is > 4 mM (inactive).

For the molecule `Cc1nnc(SCC(=O)NC2CCCC2)[nH]c1=O`, the Kd is > 4 mM (inactive).

Regarding `COCC(=O)Nc1nc2ccc(C)cc2s1`, the Kd is > 4 mM (inactive).

Turning to `CN1CCC(NC(=S)NC2CC2)CC1`, the Kd is > 4 mM (inactive).

Consider `O=C1c2ccccc2C(=O)N1CCc1ccccn1`, for which the Kd was > 4 mM (inactive).

Turning to `OCc1ccc(-n2ccnc2)cc1`, the Kd was > 4 mM (inactive).

For the molecule `C[n+]1cccc(C(=O)[O-])c1`, the Kd is > 4 mM (inactive).

For the molecule `COC(=O)c1ccc(NC(=O)CC2NCCNC2=O)cc1` (centres undefined), the Kd was > 4 mM (inactive).

Regarding `CC12CCC3C(CC3(C)C)C(C)(CCC1=O)O2` (centres undefined), the Kd was > 4 mM (inactive).

With `C=C[C@H]1CN2CC[C@H]1C[C@@H]2[C@H](O)c1ccnc2ccccc12`, the Kd is > 4 mM (inactive).

Take `CCc1cccc(C)c1NC(=O)c1cc(C)oc1C`: the Kd is > 4 mM (inactive).

On to `COc1ccc(C(=O)NNC(=S)NC(C)=O)cc1`, for which the Kd was > 4 mM (inactive).

Turning to `COC(=O)[C@@]1(C)CCC[C@]2(C)c3ccc(O)c(C(C)C)c3CCC12` (some centres undefined), the Kd is > 4 mM (inactive).

For `NCc1ccc(-c2ccccn2)s1`, the Kd was > 4 mM (inactive).

With `CCn1c(C)c(C(C)=O)c(N2CCOCC2)nc1=S`, the Kd is > 4 mM (inactive).

For `Cc1ccc(CN2CCNC(=O)C2CC(=O)O)o1` (centres undefined), the Kd is > 4 mM (inactive).

As for `Cc1ccccc1-n1c(-c2cccnc2)n[nH]c1=S`, the Kd was > 4 mM (inactive).
